# pEC50: −log10 of the molar value.
# Biological target: T1, KCC2 (Homo sapiens, UniProt Q9H2X9)
# T1 construct: expressed in transfected cells; host or cells: HEK293 cells electroporated (Maxcyte STX) with the pcDNA3.1 KCC2 plasmid
# T1 sequence (Q9H2X9 1-1139): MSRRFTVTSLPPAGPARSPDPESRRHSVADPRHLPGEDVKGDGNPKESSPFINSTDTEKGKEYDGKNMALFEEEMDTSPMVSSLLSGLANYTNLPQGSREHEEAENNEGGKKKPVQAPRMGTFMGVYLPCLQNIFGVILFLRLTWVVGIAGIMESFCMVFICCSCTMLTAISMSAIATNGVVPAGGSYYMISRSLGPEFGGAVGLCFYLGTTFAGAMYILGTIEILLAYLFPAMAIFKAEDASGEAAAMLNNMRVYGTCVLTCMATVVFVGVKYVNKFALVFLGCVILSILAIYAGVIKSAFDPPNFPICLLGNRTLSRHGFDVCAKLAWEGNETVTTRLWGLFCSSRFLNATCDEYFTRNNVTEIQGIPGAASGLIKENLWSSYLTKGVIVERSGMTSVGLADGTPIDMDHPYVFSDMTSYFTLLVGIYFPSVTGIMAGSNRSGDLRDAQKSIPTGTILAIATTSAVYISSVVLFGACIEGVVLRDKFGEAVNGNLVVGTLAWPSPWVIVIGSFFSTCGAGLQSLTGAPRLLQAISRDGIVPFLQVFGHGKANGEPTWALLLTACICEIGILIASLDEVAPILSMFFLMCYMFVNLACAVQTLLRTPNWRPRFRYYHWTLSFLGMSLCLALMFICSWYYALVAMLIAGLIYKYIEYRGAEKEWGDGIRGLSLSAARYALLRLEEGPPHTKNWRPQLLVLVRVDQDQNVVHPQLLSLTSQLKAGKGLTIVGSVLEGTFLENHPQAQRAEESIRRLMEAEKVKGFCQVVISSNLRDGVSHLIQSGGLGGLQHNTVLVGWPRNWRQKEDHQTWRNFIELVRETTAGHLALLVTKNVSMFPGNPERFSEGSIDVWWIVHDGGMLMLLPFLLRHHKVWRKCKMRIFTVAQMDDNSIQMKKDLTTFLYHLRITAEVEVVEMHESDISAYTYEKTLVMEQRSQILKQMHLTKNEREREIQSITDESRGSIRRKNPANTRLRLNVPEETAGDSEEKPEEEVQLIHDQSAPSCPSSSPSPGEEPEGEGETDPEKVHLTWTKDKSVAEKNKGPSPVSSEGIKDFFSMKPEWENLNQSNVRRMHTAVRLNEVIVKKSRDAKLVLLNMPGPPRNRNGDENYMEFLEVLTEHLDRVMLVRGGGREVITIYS
# Experiment: KCC2 thallium transport FLIPR-based assay (Tl+ influx in HEK293 cells expressing KCC2)
# Type: cell-based
# Details: 90 min compound incubation at RT, thallium flux at 120 s used to determine EC50
# Description: A thallium transport FLIPR-based assay was used to measure the ability of compounds to activate KCC2. KCC2 activity is assessed by measuring KCC2-dependent Tl^+ influx in a KCC2-expressing cell. The assay protocol was based on those described by Delpire et al (Proc Natl Acad Sci USA. 2009 Mar. 31; 106(13): 5383-5388) and Zhang et al (Journal of Biomolecular Screening 15(2): 2010).
# KCC2 was synthesised and codon optimised by GeneArt based on the Uniprot sequence Q9H2X9. The final sequence was subcloned into pcDNA3.1.
# HEK293 cells were grown in 10 layer cell stacks at 37° C., 5% CO2, in DMEM, 10% fetal calf serum and 2 mM Glutamine. The cells were detached by removing the media and washing the cell stack with 100 ml of PBS. The PBS was removed and 100 ml of 1× TrypLE was added and the cell stack returned to 37° C. for 5 min. The detached cells were then counted in a Vi Cell counter and spun for 10 min at 1250 rpm in a Sorval Legend centrifuge. The cells were diluted down in Maxcyte electroporation buffer at 4× the final concentration and spun as before. The cell pellet was resuspended at 1×10^8/cells per ml and electroporated in a Maxcyte Cl 2.2 bag on a Maxcyte STX machine via the HEK293 programme with 200 ug/ml of plasmid DNA. The cells were then allowed to recover for 30 min before adding to 500 ml of PBS and then counted again on the Vi Cell. The cells were then frozen down in planer controlled rate freeze in 90% complete media, 10% DMSO.
# All reagents were dispensed using a Mulitdrop Combi unless stated otherwise. All FluXOR Invitrogen propriety buffer compositions are mentioned in tables below.
# HEK293 KCC2 cells were harvested at a density of 3.33×10^5 cells/mL in complete media (DMEM, Sigma, D6546, 10% fetal calf serum and 1% Glutamax) and 30 μL per well seeded into 384-well PDL coated black-clear plates (Corning, 354663). Leave cells at RT for 20 mins to settle before incubating for 48 h at 37° C., 5% CO2. Following incubation, perform three wash steps in HBSS (Sigma, H6648) using a Biotek cell washer with the final aspiration leaving 20 μL HBSS residual volume in each well. A further 20 μL per well of thallium loading dye is then added (1 h, RT, protect from light). 5 μL of test compounds (100 μM top concentration, 1:2 dilutions, 12 point curve) were added using the FLIPR TETRA and incubated at RT for 90 min in the dark. Following compound incubation, the thallium flux response is read on FLIPR TETRA (ex. 515-575 nm) which is initiated by FLIRR TETRA dispensing 5 μL stimulus buffer into each well. Recordings are measured every 1 second for 120 seconds. Thallium flux at 120 s used to determine EC50.
# Compound buffer: Assay buffer with 1 μL of bumetanide per 10 ml.
row,SMILES,pEC50
1,"COc1cc(-c2nc(Nc3ccc(C4CCCCC4)cc3)c3c(n2)C(=O)N(C(C)C)C3)ccn1 [Example 43, 4-[(4-cyclohexylphenyl)amino]-2-(2-methoxypyridin-4-yl)-6-(propan-2-yl)-5,6-dihydro-7H-pyrrolo[3,4-d]pyrimidin-7-one]",6.13
2,"Cc1cc(-c2nc(Nc3ccc(C4CCCCC4)cc3)c3c(n2)C(=O)N(C(C)C)C3)ccn1 [Example 44, 4-[(4-cyclohexylphenyl)amino]-2-(2-methylpyridin-4-yl)-6-(propan-2-yl)-5,6-dihydro-7H-pyrrolo[3,4-d]pyrimidin-7-one]",6.05
3,"CC(C)N1Cc2c(Nc3ccc(C4CCCCC4)cc3)nc(C3=CCOCC3)nc2C1=O [Example 45, 4-[(4-cyclohexylphenyl)amino]-2-(3,6-dihydro-2H-pyran-4-yl)-6-(propan-2-yl)-5,6-dihydro-7H-pyrrolo[3,4-d]pyrimidin-7-one]",5.94
4,"CC(C)N1Cc2c(Nc3ccc(C4CCCCC4)cc3)nc(-c3ccncc3)nc2C1=O [Example 46, 4-[(4-cyclohexylphenyl)amino]-6-(propan-2-yl)-2-(pyridin-4-yl)-5,6-dihydro-7H-pyrrolo[3,4-d]pyrimidin-7-one]",5.89
5,"CC(C)N1Cc2c(Nc3ccc(C4CCCCC4)cc3)nc(-c3cnn(C)c3)nc2C1=O [Example 47, 4-[(4-cyclohexylphenyl)amino]-2-(1-methyl-1H-pyrazol-4-yl)-6-(propan-2-yl)-5,6-dihydro-7H-pyrrolo[3,4-d]pyrimidin-7-one]",5.50

# Next, values leading:
row,pEC50,SMILES
1,5.20,"CC(C)N1Cc2c(Nc3ccc(C4CCCCC4)cc3)nc(-c3cnco3)nc2C1=O [Example 48, 4-[(4-cyclohexylphenyl)amino]-2-(1,3-oxazol-5-yl)-6-(propan-2-yl)-5,6-dihydro-7H-pyrrolo[3,4-d]pyrimidin-7-one]"
2,5.20,"CC(C)N1Cc2c(Nc3ccc(C4CCCCC4)cc3)nc(-c3cncs3)nc2C1=O [Example 49, 4-[(4-cyclohexylphenyl)amino]-6-(propan-2-yl)-2-(1,3-thiazol-5-yl)-5,6-dihydro-7H-pyrrolo[3,4-d]pyrimidin-7-one]"
3,5.10,"CC(C)c1ccc(Nc2nc(C3=CCOCC3)nc3c2CN(C(C)C)C3=O)cc1 [Example 50, 2-(3,6-dihydro-2H-pyran-4-yl)-6-(propan-2-yl)-4-{[4-(propan-2-yl)phenyl]amino}-5,6-dihydro-7H-pyrrolo[3,4-d]pyrimidin-7-one]"
4,6.01,"CC(C)N1Cc2c(Nc3ccc(Oc4ccc(F)cc4)cc3)nc(N3CCO[C@H](C)C3)nc2C1=O [Example 51, (R)-4-((4-(4-fluorophenoxy)phenyl)amino)-6-isopropyl-2-(2-methylmorpholino)-5,6-dihydro-7H-pyrrolo[3,4-d]pyrimidin-7-one]"
5,6.84,"C#CCCCCCOc1ccc(-c2ccc(Nc3nc(N4CCOC(C5CC5)C4)nc4c3CN(C(C)C)C4=O)cc2)cc1 (stereo not drawn) [Example 52, 2-(2-cyclopropylmorpholin-4-yl)-4-({4′-[(hept-6-yn-1-yl)oxy][1,1′-biphenyl]-4-yl}amino)-6-(propan-2-yl)-5,6-dihydro-7H-pyrrolo[3,4-d]pyrimidin-7-one]"
6,6.67,"CCCCCCCOc1ccc(-c2ccc(Nc3nc(N4CCOC(C5CC5)C4)nc4c3CN(C(C)C)C4=O)cc2)cc1 (stereo not drawn) [Example 53, 2-(2-cyclopropylmorpholin-4-yl)-4-{[4′-(heptyloxy)[1,1′-biphenyl]-4-yl]amino}-6-(propan-2-yl)-5,6-dihydro-7H-pyrrolo[3,4-d]pyrimidin-7-one]"
7,6.60,"C#CCCC1(CCOc2ccc(-c3ccc(Nc4nc(N5CCOC(C6CC6)C5)nc5c4CN(C(C)C)C5=O)cc3)cc2)N=N1 (stereo not drawn) [Example 54, 4-[(4′-{2-[3-(but-3-yn-1-yl)-3H-diaziren-3-yl]ethoxy}[1,1′-biphenyl]-4-yl)amino]-2-(2-cyclopropyl-morpholin-4-yl)-6-(propan-2-yl)-5,6-dihydro-7H-pyrrolo[3,4-d]pyrimidin-7-one]"
